Assay: method code SF, from DOI: 10.1080/10826079508010421
Details: pH 11.0

logD	Structure (SMILES)
2	NC1=NCC(COc2ccc(Cl)cc2)O1 (stereo not given)
1.26	COc1ccc(OCC2CN=C(N)O2)cc1 (stereo not given)
0.6	NC1=NCC(COc2ccc(N3CCOCC3)cc2)O1 (stereo not given)
1.79	Cc1ccc(OCC2CN=C(N)O2)cc1 (stereo not given)

Continued, compound first:

Structure (SMILES)	logD
COc1ccccc1OCC1CN=C(N)O1 (stereo not given)	0.85
NC1=NCC(COc2ccc([N+](=O)[O-])cc2)O1 (stereo not given)	1.17
Cc1ccccc1OCC1CN=C(N)O1 (stereo not given)	1.69
NC1=NCC(COc2ccccc2Cl)O1 (stereo not given)	1.77
CCOc1ccccc1OCC1CN=C(N)O1 (stereo not given)	1.24
NC1=NCC(COc2ccccc2)O1 (stereo not given)	1.27

— the SangsterLogP compilation
